Here are results for 1 substance from article PMC12435445, “Crown Ether–Peptide Rotaxanes” (Angewandte Chemie (International Ed. in English), 2025).

The series in a line: Stability of rotaxane positional isomers to heating or standing, followed by 1H NMR. The series is classed as physicochemical. The method, then: The properties of the 1:0:0‐, 0:1:0‐ and 0:0:1‐diastereomers of 24C8⊂16 were probed using a range of spectroscopic and spectrometric techniques. No change in the ^1H NMR spectra of the rotaxane positional isomers occurred upon heating at 70 °C in DMSO‐d6 for 2 h, or after prolonged periods at room temperature. […] When compared to the noninterlocked thread peptide 16; significant downfield shifts are observed for Hb in 1:0:0–24C8⊂16 (ΔδHb = +0.45 ppm), Hh in 0:1:0–24C8⊂16 (ΔδHh = +0.30 ppm) and Hq in 0:0:1–24C8⊂16 (ΔδHq = +0.21 ppm). The protons associated with the encapsulated glycine residue are also downshifted (protons Hf, Ho and Hu, in 1:0:0–24C8⊂16, 0:1:0–24C8⊂16 and 0:0:1–24C8⊂16, respectively). Substantial upfield shifts for the amide protons Ha, He, Hg, Hn (ΔδH = −0.78, −0.43, −0.40, and −0.49 ppm) in 1:0:0–24C8⊂16, Hg, Hn, Hp, and Ht in 0:1:0–24C8⊂16 (ΔδH = −0.26, −0.48, −0.45, and −0.44 ppm), and Hp, Ht and Hv (ΔδH = −0.33, −0.44, and −0.63 ppm) in 0:0:1–24C8⊂16 indicate that the crown ether also interacts with the amide group of the C‐adjacent residue. As in the tripeptide rotaxanes 24C8⊂4–14, the diastereotopic splitting for the encapsulated glycine methylene becomes more pronounced, as do the protons of the leucine residue (Hd), within 1:0:0–24C8⊂16. The presence of the macrocycle reduces the rotation of nearby amides within the compartment it occupies.

On to “Boc‐Leu‐Gly‐Trp‐Gly‐Tyr(TIPS)‐Gly‐Phe‐OMe [1:0:0–24C8⊂16, 24C8 crown ether–heptapeptide [2]rotaxane, ring on left‐hand glycine between Boc‐Leu and Trp of axle 16]”, for which the “change in the 1H NMR spectra (interconversion of positional isomers or dethreading of macrocycle)” value reads like this: (heating at 70 °C in DMSO-d6 for 2 h) “No change”; (prolonged periods at room temperature) “No change”.
